Test results reported in US12653892B2, “Composition and method for new therapeutic agents including guanidinium-presenting dendrimers and branched structures” (priority 2020, dated 2026).
In brackets after ≈: the same amount, converted by molar mass. Where two headings read alike, the source gives them in different places.

Tests used:
S. aureus ATCC 29213 [1] = experiment: MIC by broth microdilution, S. aureus ATCC 29213; type: cell-based; conditions: S. aureus (ATCC 29213); for MIC, Antibiotic +NH2-triguan-6C / MIC, Antibiotic +NO2-triamine-2C / MIC, Antibiotic +NO2-triamine-6C: non-covalent mixture; for MIC: Staphylococcus aureus, ATCC29213, 20 h, read-out: MIC, Antibiotic Alone
Method: (§1) Methods—Determination of MICs: MICs for S. aureus, E. faecium, E. coli, P aeruginosa, A. baumannii, K. pneumoniae were determined using broth microdilution in accordance with CLSI methods (Wiegand, I.; Hilpert, K.; Hancock, R. E. W. Agar and Broth Dilution Methods to Determine the Minimal Inhibitory Concentration (MIC) of Antimicrobial Substances. Nat. Protoc. 2008, 3, 163-175). One day prior to each MIC experiment, bacterial strains were streaked for single colonies on TSA plates from frozen glycerol stocks stored at −80° C. Three to five colonies from each plate were harvested with a disposable inoculating loop and resuspended in 500 μL of PBS to create a bacterial suspension. Alternatively, a single colony of the appropriate bacterial strain was added to 4 mL TSB for overnight growth at 37° C. with 200 rpm shaking to create a stationary phase bacterial suspension. The suspension was diluted in PBS to an OD600 of 0.1 (˜[…] CFU/ml), and the OD 0.1 suspension was diluted 1:100 in Mueller Hinton broth (MHB, Difco 257530) just prior to inoculating the 96-well polypropylene treatment plate (Costar 3879). A 50 μL portion of inoculum was added to a treatment plate containing 2-fold serial dilutions of compound in MHB (50 μL of treatment/well) to lend a final total volume of 100 μL/well and a final inoculum density of ˜5×10^5 CFU/ml. The completed assay plate was sealed with Parafilm, placed in a lidded plastic tray lined with moistened paper towels, and incubated at 37° C. for approximately 20 hours. The MIC was read as the lowest treatment concentration where no bacterial growth occurred, as determined by OD600 measurements on a microplate reader. If a different plate or media type was used for a particular test, this is noted below the respective table.

E. coli ATCC 25922 [2] = experiment: MIC by broth microdilution, E. coli ATCC 25922; type: cell-based; conditions: E. coli (ATCC 25922); for MIC, Antibiotic +NH2-triguan-6C / MIC, Antibiotic +NO2-triamine-2C / MIC, Antibiotic +NO2-triamine-6C: non-covalent mixture
Method: as §1

S. aureus ATCC 29213 [3] = conditions: cited from earlier work
E. coli ATCC 25922 [4] = conditions: cited from earlier work
[5] = Mueller Hinton Broth, polypropylene plate
[6] = cation-adjusted MHB2 supplemented
[7] = cation-adjusted MHB2 supplemented with 50 g/L Ca2+

Row | SMILES | MIC, Antibiotic +NH2-triguan-6C (S. aureus ATCC 29213 [1]; [5]) | MIC, Antibiotic +NO2-triamine-2C (S. aureus ATCC 29213 [1]; [5]) | MIC, Antibiotic +NO2-triamine-6C (S. aureus ATCC 29213 [1]; [5]) | MIC (S. aureus ATCC 29213 [1]; [5]) | MIC, Antibiotic Alone (E. coli ATCC 25922 [2]) | MIC, Antibiotic +NH2-triguan-6C (E. coli ATCC 25922 [2]) | MIC, Antibiotic +NO2-triamine-2C (E. coli ATCC 25922 [2]) | MIC, Antibiotic +NO2-triamine-6C (E. coli ATCC 25922 [2]) | Literature MIC (S. aureus ATCC 29213 [3]) | Literature MIC (E. coli ATCC 25922 [4]) | MIC, Antibiotic +NH2-triguan-6C (S. aureus ATCC 29213 [1]; [6]) | MIC, Antibiotic +NO2-triamine-2C (S. aureus ATCC 29213 [1]; [7]) | MIC, Antibiotic +NO2-triamine-6C (S. aureus ATCC 29213 [1]; [7]) | MIC (S. aureus ATCC 29213 [1]; [6])
1 | CC1(C)S[C@@H]2[C@H](NC(=O)[C@H](N)c3ccccc3)C(=O)N2[C@H]1C(=O)O [Ampicillin] | 4 µM (≈ 1.4 µg/mL) | 4 µM (≈ 1.4 µg/mL) | 4 µM (≈ 1.4 µg/mL) | 2 µM (≈ 0.699 µg/mL) | 16 µM (≈ 5.59 µg/mL) | 16 µM (≈ 5.59 µg/mL) | 16 µM (≈ 5.59 µg/mL) | 16 µM (≈ 5.59 µg/mL) | 1.4 µM | 5 to 22 µM | – | – | – | –
2 | CC[C@H]1OC(=O)[C@H](C)[C@@H](O[C@H]2C[C@@](C)(OC)[C@@H](O)[C@H](C)O2)[C@H](C)[C@@H](O[C@@H]2O[C@H](C)C[C@H](N(C)C)[C@H]2O)[C@](C)(O)C[C@@H](C)CN(C)[C@H](C)[C@@H](O)[C@]1(C)O [Azithromycin] | 2 µM (≈ 1.5 µg/mL) | 2 µM (≈ 1.5 µg/mL) | 2 µM (≈ 1.5 µg/mL) | 2 µM (≈ 1.5 µg/mL) | – | – | – | – | 0.64 to 2.5 µM | – | – | – | – | –
3 | O=C(N[C@H](CO)[C@H](O)c1ccc([N+](=O)[O-])cc1)C(Cl)Cl [Chloramphenicol] | 32 µM (≈ 10.3 µg/mL) | 32 µM (≈ 10.3 µg/mL) | 32 µM (≈ 10.3 µg/mL) | 32 µM (≈ 10.3 µg/mL) | 16 µM (≈ 5.17 µg/mL) | 16 µM (≈ 5.17 µg/mL) | 16 µM (≈ 5.17 µg/mL) | 16 µM (≈ 5.17 µg/mL) | 6 to 50 µM | 6 to 25 µM | – | – | – | –
4 | O=C(O)c1cn(C2CC2)c2cc(N3CCNCC3)c(F)cc2c1=O [Ciprofloxacin] | – | – | – | – | – | – | – | – | 0.4 to 1.5 µM | – | – | – | – | –
5 | CCCCCCCCCC(=O)N[C@@H](Cc1c[nH]c2ccccc12)C(=O)N[C@H](CC(N)=O)C(=O)N[C@@H](CC(=O)O)C(=O)N[C@@H]1C(=O)NCC(=O)N[C@@H](CCCN)C(=O)N[C@@H](CC(=O)O)C(=O)N[C@H](C)C(=O)N[C@@H](CC(=O)O)C(=O)NCC(=O)N[C@H](CO)C(=O)N[C@@H]([C@H](C)CC(=O)O)C(=O)N[C@@H](CC(=O)c2ccccc2N)C(=O)O[C@@H]1C [Daptomycin] | – | – | – | – | – | – | – | – | 0.077 to 0.62 µM | – | 0.5 µM (≈ 0.81 µg/mL) | 0.5 µM (≈ 0.81 µg/mL) | 0.5 µM (≈ 0.81 µg/mL) | 0.5 µM (≈ 0.81 µg/mL)
6 | C[C@@H](O)[C@H]1C(=O)N2C(C(=O)O)=C(S[C@@H]3CN[C@H](C(=O)N(C)C)C3)[C@H](C)[C@H]12 [Meropenem] | 0.125 µM (≈ 0.0479 µg/mL) | 0.125 µM (≈ 0.0479 µg/mL) | 0.125 µM (≈ 0.0479 µg/mL) | 0.125 µM (≈ 0.0479 µg/mL) | – | – | – | – | 0.08 to 0.65 µM | – | – | – | – | –
